Experimental findings from patent US20070082880A1 (priority 2005, published 2007) are described below.

In series [1] the target is T1, human PKCθ full length enzyme (Homo sapiens, UniProt Q04759).
T1 construct: human PKCθ full length enzyme (Panvera Catalog No. P2996); purchased Panvera P2996
Nature of the series: PKCθ IMAP Assay. The series is classed as biochemical. The conditions noted are these: average value when one or more samples were tested; ATP 6 uM, PKCθ 1 nM. The method, boiled down: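 Full-length human PKCθ (1 nM final) with 6 uM ATP and 100 nM 5FAM-labelled peptide, 5% DMSO, 3.0 mM DTT in reaction buffer. 25 min at room temperature; IMAP bead binding 20 min, fluorescence polarization read. Compounds 2:1 serially diluted; no-ATP and no-enzyme wells as controls.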

Counter-ions that a name gives are not always drawn.

T1 sequence (Q04759 whole entry): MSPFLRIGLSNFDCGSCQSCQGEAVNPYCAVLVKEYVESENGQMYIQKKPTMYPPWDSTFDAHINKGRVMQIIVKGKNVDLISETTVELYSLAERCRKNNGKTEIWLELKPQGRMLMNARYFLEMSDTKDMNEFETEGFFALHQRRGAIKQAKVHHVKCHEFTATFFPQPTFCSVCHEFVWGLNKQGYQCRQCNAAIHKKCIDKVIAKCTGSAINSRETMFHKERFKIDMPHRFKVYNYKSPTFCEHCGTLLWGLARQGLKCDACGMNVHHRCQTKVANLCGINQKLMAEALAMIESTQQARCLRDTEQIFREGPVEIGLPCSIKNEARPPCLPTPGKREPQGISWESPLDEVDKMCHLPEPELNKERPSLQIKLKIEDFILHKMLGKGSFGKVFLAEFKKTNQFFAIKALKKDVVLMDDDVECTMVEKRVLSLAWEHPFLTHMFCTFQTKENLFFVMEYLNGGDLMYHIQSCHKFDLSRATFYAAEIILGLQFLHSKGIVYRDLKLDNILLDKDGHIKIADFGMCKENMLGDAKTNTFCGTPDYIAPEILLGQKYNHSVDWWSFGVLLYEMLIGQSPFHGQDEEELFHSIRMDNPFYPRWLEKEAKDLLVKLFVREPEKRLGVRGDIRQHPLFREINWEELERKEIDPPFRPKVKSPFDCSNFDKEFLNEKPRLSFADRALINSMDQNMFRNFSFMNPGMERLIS

Turning to `Br.N#Cc1cnc2scc(Br)c2c1Nc1ccc2[nH]ccc2c1`, the melting point (as a rule, the temperature of the solid-liquid transition) was in the range of 249 to 251 °C.

For `N#Cc1cnc2sc(I)cc2c1Nc1cccc2cc[nH]c12` [Compound 108, 4-(1H-indol-7-ylamino)-2-iodothieno[2,3-b]pyridine-5-carbonitrile], the melting point is more than 245 °C.

For `Cl.N#Cc1cnc2sc(I)cc2c1Nc1cccc2[nH]ccc12`, the melting point was more than 245 °C.

As for `N#Cc1cnc2sc(-c3cccc(C=O)c3)cc2c1Nc1cccc2[nH]ccc12` [Compound 139, 2-(3-formylphenyl)-4-(1H-indol-4-ylamino)thieno[2,3-b]pyridine-5-carbonitrile], the melting point was more than 245 °C.

For the compound `N#Cc1cnc2sc(-c3cccc(C=O)c3)cc2c1Nc1ccc2[nH]ccc2c1` [Compound 144, 2-(3-formylphenyl)-4-(1H-indol-5-ylamino)thieno[2,3-b]pyridine-5-carbonitrile], the melting point lay within 221 to 223 °C.

In the case of `N#Cc1cnc2sc(-c3ccc(C=O)cc3)cc2c1Nc1cccc2[nH]ccc12` [Compound 136, 2-(4-formylphenyl)-4-(1H-indol-4-ylamino)thieno[2,3-b]pyridine-5-carbonitrile], the melting point was more than 245 °C.

In turn, `Cc1c(Nc2c(C#N)cnc3sc(C#C[Si](C)(C)C)cc23)ccc2[nH]ccc12` displayed a melting point of 258 to 260 °C.

For the compound `Cc1c(Nc2c(C#N)cnc3sc(/C=C/CN4CCOCC4)cc23)ccc2[nH]ccc12` (as salt: HCl) [Compound 275, 4-[(4-methyl-1H-indol-5-yl)amino]-2-[(1E)-3-morpholin-4-ylprop-1-en-1-yl]thieno[2,3-b]pyridine-5-carbonitrile], the melting point is 230 °C (dec.).

For `N#Cc1cnc2sc(-c3ccccc3C=O)cc2c1Nc1cccc2[nH]ccc12` [Compound 142, 2-(2-formylphenyl)-4-(1H-indol-4-ylamino)thieno[2,3-b]pyridine-5-carbonitrile], the melting point fell in the range of 137 to 139 °C.

Turning to `Cl.N#Cc1cnc2sc(I)cc2c1Nc1ccc2[nH]ccc2c1`, the melting point lay within 250 to 252 °C.

As for `N#Cc1cnc2sc(-c3ccc(S(=O)(=O)NC4CCCCC4)cc3)cc2c1Nc1ccc2[nH]ccc2c1` [Compound 233, 4-[5-cyano-4-(1H-indol-5-ylamino)thieno[2,3-b]pyridin-2-yl]-N-cyclohexylbenzenesulfonamide], in series [1], the IC50 – broadly, the point on the concentration scale where inhibition reaches its midpoint – amounted to 40 µM.

Compound `N#Cc1cnc2sc(-c3ccccc3C=O)cc2c1Nc1ccc2[nH]ccc2c1` [Compound 184, 2-(2-formylphenyl)-4-(1H-indol-5-ylamino)thieno[2,3-b]pyridine-5-carbonitrile] gave a melting point of 222 to 224 °C.

On to `Cc1c(Nc2c(C#N)cnc3sc(C4CCN(Cc5ccccc5)C4)cc23)ccc2[nH]ccc12` (centres unmarked) (as salt: HCl) [Compound 479, 2-(1-benzylpyrrolidin-3-yl)-4-[(4-methyl-1H-indol-5-yl)amino]thieno[2,3-b]pyridine-5-carbonitrile], for which the melting point was 185 °C (dec.).

Turning to `COc1ccc(CN2CCN(C)CC2)cc1-c1cc2c(Nc3ccc4[nH]ccc4c3C)c(C#N)cnc2s1` [Compound 461, 2-{2-methoxy-5-[(4-methylpiperazin-1-yl)methyl]phenyl}-4-[(4-methyl-1H-indol-5-yl)amino]thieno[2,3-b]pyridine-5-carbonitrile], in series [1], the IC50 is 0.006 µM.

As to `N#Cc1cnc2sc(-c3cscc3C=O)cc2c1Nc1ccc2[nH]ccc2c1` [Compound 336, 2-(4-formyl-3-thienyl)-4-(1H-indol-5-ylamino)thieno[2,3-b]pyridine-5-carbonitrile], the IC50 in series [1] was 0.051 µM.

Take `CCOc1ccc2cc(-c3cc4c(Nc5ccc6[nH]ccc6c5C)c(C#N)cnc4s3)ccc2c1` [Compound 385, 2-(6-ethoxy-2-naphthyl)-4-[(4-methyl-1H-indol-5-yl)amino]thieno[2,3-b]pyridine-5-carbonitrile]: the IC50 in series [1] was more than 30 µM.

As for `Cc1c(Nc2c(C#N)cnc3sc(-c4cc(C(=O)N(C)C)ccc4F)cc23)ccc2[nH]ccc12` [Compound 511, 3-{5-cyano-4-[(4-methyl-1H-indol-5-yl)amino]thieno[2,3-b]pyridin-2-yl}-4-fluoro-N,N-dimethylbenzamide], half-maximal inhibition in series [1] (IC50) required 0.066 µM.

In series [1], `N#Cc1cnc2sc(-c3cccc(CN4CCN(CCOCCO)CC4)c3)cc2c1Nc1ccc2[nH]ccc2c1` [Compound 181, 2-[3-({4-[2-(2-hydroxyethoxy)ethyl]piperazin-1-yl}methyl)phenyl]-4-(1H-indol-5-ylamino)thieno[2,3-b]pyridine-5-carbonitrile] had an IC50 of 0.18 µM.

`Cc1c(Nc2c(C#N)cnc3sc(C4=CCNCC4)cc23)ccc2[nH]ccc12` [Compound 474, 4-[(4-methyl-1H-indol-5-yl)amino]-2-(1,2,3,6-tetrahydropyridin-4-yl)thieno[2,3-b]pyridine-5-carbonitrile] showed an IC50 in series [1] of 0.01 µM.

In series [1], `Cc1c(Nc2c(C#N)cnc3sc(/C=C/C(=O)NN4CCCC4)cc23)ccc2[nH]ccc12` [Compound 314, (2E)-3-{5-cyano-4-[(4-methyl-1H-indol-5-yl)amino]thieno[2,3-b]pyridin-2-yl}-N-pyrrolidin-1-ylacrylamide] displayed an IC50 of 0.375 µM.

As to `COc1cccc(/C=C/c2cc3c(Nc4ccc5[nH]ccc5c4)c(C#N)cnc3s2)c1` [Compound 404, 4-(1H-indol-5-ylamino)-2-[(E)-2-(3-methoxyphenyl)vinyl]thieno[2,3-b]pyridine-5-carbonitrile], the midpoint of inhibition in series [1], the IC50, lay at 1.14 µM.

Consider `Cc1c(Nc2c(C#N)cnc3sc(-c4cc(C=O)ccc4F)cc23)ccc2[nH]ccc12` [Compound 389, 2-(2-fluoro-5-formylphenyl)-4-[(4-methyl-1H-indol-5-yl)amino]thieno[2,3-b]pyridine-5-carbonitrile], for which the IC50 in series [1] is 0.018 µM.

In series [1], `COc1c(CN(C)C)cccc1-c1cc2c(Nc3ccc4[nH]ccc4c3C)c(C#N)cnc2s1` [Compound 526, 2-{3-[(dimethylamino)methyl]-2-methoxyphenyl}-4-[(4-methyl-1H-indol-5-yl)amino]thieno[2,3-b]pyridine-5-carbonitrile] gave an IC50 of 0.012 µM.

In series [1], `CONC(=O)c1ccc(-c2cc3c(Nc4ccc5[nH]ccc5c4C)c(C#N)cnc3s2)cc1` [Compound 358, 4-{5-cyano-4-[(4-methyl-1H-indol-5-yl)amino]thieno[2,3-b]pyridin-2-yl}-N-methoxybenzamide] returned an IC50 of 0.01 µM.

As for `Cc1c(Nc2c(C#N)cnc3sc(-c4cc(CN(C)C)ccc4F)cc23)ccc2[nH]ccc12` [Compound 463, 2-{5-[(dimethylamino)methyl]-2-fluorophenyl}-4-[(4-methyl-1H-indol-5-yl)amino]thieno[2,3-b]pyridine-5-carbonitrile], in series [1], it took 0.014 µM to reach half-maximal inhibition (IC50).

In turn, `Cc1c(Nc2c(C#N)cnc3sc(-c4ccc(CN(C)C)cc4)c(C)c23)ccc2[nH]ccc12` [Compound 460, 2-{4-[(dimethylamino)methyl]phenyl}-3-methyl-4-[(4-methyl-1H-indol-5-yl)amino]thieno[2,3-b]pyridine-5-carbonitrile] gave an IC50 in series [1] of 0.061 µM.

Regarding `Cc1c(Nc2c(C#N)cnc3sc(-c4ccccc4NS(C)(=O)=O)cc23)ccc2[nH]ccc12` [Compound 371, N-(2-{5-cyano-4-[(4-methyl-1H-indol-5-yl)amino]thieno[2,3-b]pyridin-2-yl}phenyl)methanesulfonamide], it took 0.182 µM to reach half-maximal inhibition in series [1] (IC50).

In series [1], `Cc1c(Nc2c(C#N)cnc3sc(/C=C/C(=O)N4CCCCC4)cc23)ccc2[nH]ccc12` [Compound 298, 4-[(4-methyl-1H-indol-5-yl)amino]-2-[(1E)-3-oxo-3-piperidin-1-ylprop-1-en-1-yl]thieno[2,3-b]pyridine-5-carbonitrile] returned a concentration for half-maximal inhibition (IC50) of 0.048 µM.

The compound `CNS(=O)(=O)c1cccc(-c2sc3ncc(C#N)c(Nc4ccc5[nH]ccc5c4C)c3c2C)c1` [Compound 428, 3-{5-cyano-3-methyl-4-[(4-methyl-1H-indol-5-yl)amino]thieno[2,3-b]pyridin-2-yl}-N-methylbenzenesulfonamide] yielded an IC50 in series [1] of 0.06 µM.

For the compound `Cc1c(Nc2c(C#N)cnc3sc(-c4cccc(S(N)(=O)=O)c4)c(C)c23)ccc2[nH]ccc12` [Compound 427, 3-{5-cyano-3-methyl-4-[(4-methyl-1H-indol-5-yl)amino]thieno[2,3-b]pyridin-2-yl}benzenesulfonamide], the IC50 in series [1] worked out at 0.034 µM.

In series [1], `Cc1c(Nc2c(C#N)cnc3sc(-c4csc(CN(C)C)c4)cc23)ccc2[nH]ccc12` [Compound 468, 2-{5-[(dimethylamino)methyl]-3-thienyl}-4-[(4-methyl-1H-indol-5-yl)amino]thieno[2,3-b]pyridine-5-carbonitrile] gave an IC50 of 0.016 µM.

For `N#Cc1cnc2sc(C(=O)N3CCCC3)cc2c1Nc1cccc2[nH]ccc12` [Compound 264, 4-(1H-indol-4-ylamino)-2-(pyrrolidin-1-ylcarbonyl)thieno[2,3-b]pyridine-5-carbonitrile], half-maximal inhibition in series [1] (IC50) was put at 0.669 µM.

On to `N#Cc1cnc2sc(-c3ccc4ccccc4c3)cc2c1Nc1ccc2[nH]ccc2c1` [Compound 328, 4-(1H-indol-5-ylamino)-2-(2-naphthyl)thieno[2,3-b]pyridine-5-carbonitrile], for which half-maximal inhibition in series [1] (IC50) required 1.38 µM.

In turn, `N#Cc1cnc2sc(-c3cccc(CN4CCC(CO)CC4)c3)cc2c1Nc1ccc2[nH]ccc2c1` [Compound 174, 2-(3-{[4-(hydroxymethyl)piperidin-1-yl]methyl}phenyl)-4-(1H-indol-5-ylamino)thieno[2,3-b]pyridine-5-carbonitrile] gave an IC50 in series [1] of 0.24 µM.

`Cc1c(Nc2c(C#N)cnc3sc(-c4cccc(S(N)(=O)=O)c4)cc23)ccc2[nH]ccc12` [Compound 240, 3-{5-cyano-4-[(4-methyl-1H-indol-5-yl)amino]thieno[2,3-b]pyridin-2-yl}benzenesulfonamide] registered an IC50 in series [1] of 0.006 µM.
